Reference: patent publication US20150132342A1, “NOVEL IMMUNE ACTIVATORS: SUBSTITUTE 4-AMINOQUINAZOLINES” (The Regents of the University of California, priority 2013, published 2015)

Key:
Format in all cases: cell-based
TLR4/MD-2/CD14 = biological target: T1, TLR4/MD-2/CD14 (Homo sapiens, UniProt O00206+Q9Y6Y9); assay: hTLR4 HEK Blue reporter cells, NF-κB SEAP secretion (QuantiBlue OD630); settings: for hTLR4 0.5 μM: Quantiblue OD630 of hTLR4 HEK Blue cells, normalized to LPS positive control=100; for Activity relative to compound 1a (SAR in words): TLR4 reporter cells and hPBMC
T1 construct: host or cells: HEK293 (HEK Blue hTLR4)
Description: In vitro assays using TLR reporter cell lines. Murine or humanTLR4 HEK Blue™ cells (Invivogen, 2.5×10^4 cells per well of a 96 well plate), or NF-κB/SEAPorter™ HEK 293 cells (Imgenex, San Diego, Calif.) for human TLR2, TLR3, TLR5, TLR7, TLR8, or TLR9 (5×10^4 cells per well of 96 well plate) were incubated with graded doses of the test compound. The culture supernatants were harvested after a 20-24 h incubation period. Secreted alkaline phosphatase (SEAP) activity in the supernatants was determined by a colorimetric assay, using either the SEAPorter Assay Kit (Imgenex, San Diego, Calif.), with absorbance read at 405 nm, or QuantiBlue (Invivogen), with absorbance read at 630 nm. In some experiments, graded concentrations of LPS-RS ([…], Invivogen) were used to test TLR4-specific binding of the hit compound.

human PBMC = assay: IL-8 release in human PBMC (ELISA); settings: Homo sapiens, PBMC, 18 h; 0.5 μM; IL-8 release, normalized to LPS positive control=100
Description: In vitro activities in human peripheral blood mononuclear cells (PBMC). Human PBMC were isolated from buffy coats obtained from the San Diego Blood Bank (San Diego, Calif.) as described previously.^5,6 PBMC (1×10^6/mL) were incubated with various compounds in complete RPMI (Omega Scientific) for 18 h at 37° C., 5% CO2 and culture supernatants were collected. The levels of IL-8 in the supernatants were determined by ELISA (BD Biosciences).

HepG2 cells = assay: MTT assay in HepG2 cells; settings: compounds tested at 10 μM; normalized with OD570-650 of vehicle treatment; in % (unit assumed)
human TLR4/MD-2 = biological target: T2, human TLR4/MD-2 (Homo sapiens, UniProt O00206+Q9Y6Y9); assay: BMDM from transgenic mice expressing human TLR4/MD-2 (IL-6, IP-10); settings: BMDM from human TLR4/MD-2 transgenic mice deficient for murine TLR4/MD-2
T2 construct: expressed in transfected cells; host or cells: bone marrow derived macrophages of human TLR4 transgenic mice on a murine TLR4/MD-2 null C57BL/6 background (gift of Dr. L. Hajjar)
Text: Animals. Seven to 9 week-old C57BL/6 (wild type, WT) and Cd14^−/− (C57BL/6 background) mice were purchased from the Jackson Laboratories (Bar Harbor, Mass.). Tlr4^−/− mice (C57BL/6 background) were a gift from Dr. Shizuo Akira (Osaka University, Japan) and were backcrossed for 10 generations onto the C57BL/6 background at University of California, San Diego (UCSD). MD-2^−/− mice (C57BL/6 background) were originally generated by Dr. K. Miyake (University of Tokyo, Tokyo, Japan) and were kindly provided by Dr. L. Hajjar (University of Washington, Seattle, Wash.). Human TLR4 transgenic mice on murine TLR4/MD-2 null C57BL/6 background were kindly provided by Dr. L. Hajjar.^3 All animal experiments were approved by the UCSD Institutional Animal Care and Use Committee.
In vitro cytokine induction in bone marrow derived dendritic cells (BMDC) and macrophages (BMDM). […] The levels of IL-6 or IP-10 in the culture supernatants were determined by ELISA (BD Biosciences, La Jolla, Calif.).^5 Finally, all levels of cytokine release were normalized to those of LPSstimulation within each experiment, set at 100.

T1 sequence (O00206 24-839): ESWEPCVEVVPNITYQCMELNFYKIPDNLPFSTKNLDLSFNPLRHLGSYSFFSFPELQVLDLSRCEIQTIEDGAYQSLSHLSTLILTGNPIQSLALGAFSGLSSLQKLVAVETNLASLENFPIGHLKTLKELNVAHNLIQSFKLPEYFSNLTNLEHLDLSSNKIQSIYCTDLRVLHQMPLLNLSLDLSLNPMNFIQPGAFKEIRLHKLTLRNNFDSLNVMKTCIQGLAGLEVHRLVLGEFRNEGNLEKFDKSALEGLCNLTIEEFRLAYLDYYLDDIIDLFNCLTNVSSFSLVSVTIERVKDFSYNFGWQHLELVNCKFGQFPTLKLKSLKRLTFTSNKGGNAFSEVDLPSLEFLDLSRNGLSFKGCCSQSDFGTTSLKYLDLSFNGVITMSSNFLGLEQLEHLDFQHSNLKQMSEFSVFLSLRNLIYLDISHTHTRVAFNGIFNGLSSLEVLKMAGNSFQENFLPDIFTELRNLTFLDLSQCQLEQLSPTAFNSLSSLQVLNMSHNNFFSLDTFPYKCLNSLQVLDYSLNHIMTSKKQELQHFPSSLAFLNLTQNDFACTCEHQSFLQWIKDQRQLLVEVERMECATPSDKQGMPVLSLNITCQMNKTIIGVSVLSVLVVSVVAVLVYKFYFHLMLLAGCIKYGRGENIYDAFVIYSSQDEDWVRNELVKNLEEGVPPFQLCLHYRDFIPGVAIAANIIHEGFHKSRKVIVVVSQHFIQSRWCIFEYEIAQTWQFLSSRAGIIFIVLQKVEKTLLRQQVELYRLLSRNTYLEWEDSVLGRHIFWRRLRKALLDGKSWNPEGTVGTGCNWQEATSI
T1 sequence (Q9Y6Y9 19-160): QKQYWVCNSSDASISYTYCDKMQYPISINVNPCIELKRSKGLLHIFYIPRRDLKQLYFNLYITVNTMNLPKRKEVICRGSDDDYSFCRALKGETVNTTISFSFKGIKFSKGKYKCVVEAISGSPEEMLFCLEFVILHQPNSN
T2 sequence (O00206 24-839): as the sequence (O00206 24-839) above
T2 sequence (Q9Y6Y9 19-160): as the sequence (Q9Y6Y9 19-160) above

hTLR4 0.5 μM (TLR4/MD-2/CD14) | HepG2 MT (HepG2 cells) | Activity relative to compound 1a (SAR in words) (TLR4/MD-2/CD14) | Activation of transgenic human TLR4/MD-2 complex relative to mouse TLR4/MD-2 (human TLR4/MD-2) | SMILES | IL-8 release (% of LPS control) at 0.5 µM (human PBMC) [%]
7.4 | 65.6 |  |  | CC(C)OC(=O)c1nc(Nc2cc(Oc3ccccc3)cc([N+](=O)[O-])c2)c2ccccc2n1 [Compound 11a, Isopropyl 4-((3-nitro-5-phenoxyphenyl)amino)quinazoline-2-carboxylate] | 2.1
8.4 | 63.4 |  |  | CC(C)CCOC(=O)c1nc(Nc2cc(Oc3ccccc3)cc([N+](=O)[O-])c2)c2ccccc2n1 [Compound 12a, Isopentyl 4-((3-nitro-5-phenoxyphenyl)amino)quinazoline-2-carboxylate] | 2.2
1.6 | 96.3 |  |  | O=C(O)c1nc(Nc2cc(Oc3ccccc3Br)cc([N+](=O)[O-])c2)c2ccccc2n1 [Compound 7g, 4-((3-(2-Bromophenoxy)-5-nitrophenyl)amino)quinazoline-2-carboxylic acid] | 0
67.8 | 106.5 |  |  | CC(C)OC(=O)c1nc(Nc2cc(Oc3ccccc3Br)cc([N+](=O)[O-])c2)c2ccccc2n1 [Compound 13g, Isopropyl 4-((3-(2-bromophenoxy)-5-nitrophenyl)amino)quinazoline-2-carboxylate] | 19.2
45.5 | 96.7 | enhanced |  | CCOC(=O)c1nc(Nc2cc(Oc3ccccc3C)cc([N+](=O)[O-])c2)c2ccccc2n1 [Compound 1b, Ethyl 4-((3-nitro-5-(o-tolyloxy)phenyl)amino)quinazoline-2-carboxylate] | 20.5
0.6 | 106.3 |  |  | CCOC(=O)c1nc(Nc2cc(Oc3c(C)cccc3C)cc([N+](=O)[O-])c2)c2ccccc2n1 [Compound 1j, Ethyl 4-((3-(2,6-dimethylphenoxy)-5-nitrophenyl)amino)quinazoline-2-carboxylate] | 0
2.2 | 107.4 |  |  | CCNC(=O)c1nc(Nc2cc(Oc3ccccc3)cc([N+](=O)[O-])c2)c2ccccc2n1 [Compound 8a, N-Ethyl-4-((3-nitro-5-phenoxyphenyl)amino)quinazoline-2-carboxamide] | 1.5
0.4 | 116.4 |  |  | COC(=O)c1nc(Nc2cc(Oc3ccccc3)cc([N+](=O)[O-])c2)c2ccccc2n1 [Compound 10a, Methyl 4-((3-nitro-5-phenoxyphenyl)amino)quinazoline-2-carboxylate] | 0.2
0.8 | 111.4 | loss of activity |  | CCOC(=O)c1nc(Nc2cc(Oc3ccc4ccccc4c3)cc([N+](=O)[O-])c2)c2ccccc2n1 [Compound 1k, Ethyl 4-((3-(naphthalen-2-yloxy)-5-nitrophenyl)amino)quinazoline-2-carboxylate] | 0
0.6 | 106.1 | complete loss of activity |  | CCOC(=O)c1nc(Nc2cc(N)cc(Oc3ccccc3)c2)c2ccccc2n1 [Compound 5a, Ethyl 4-((3-amino-5-phenoxyphenyl)amino)quinazoline-2-carboxylate] | 0.3
73.9 | 107.4 | enhanced |  | CCOC(=O)c1nc(Nc2cc(Oc3ccccc3Cl)cc([N+](=O)[O-])c2)c2ccccc2n1 [Compound 1f, Ethyl 4-((3-(2-chlorophenoxy)-5-nitrophenyl)amino)quinazoline-2-carboxylate] | 27.3
0.6 | 84.5 |  |  | O=C(O)c1nc(Nc2cc(Oc3ccccc3)cc([N+](=O)[O-])c2)c2ccccc2n1 [Compound 7a, 4-((3-Nitro-5-phenoxyphenyl)amino)quinazoline-2-carboxylic acid] | 0.5
14.5 | 109.9 |  |  | CCOC(=O)c1nc(Nc2cc(Oc3cccc(C)c3)cc([N+](=O)[O-])c2)c2ccccc2n1 [Compound 1c, Ethyl 4-((3-nitro-5-(m-tolyloxy)phenyl)amino)quinazoline-2-carboxylate] | 5.8
0.5 | 108.8 |  |  | CCOC(=O)c1nc(Nc2cc(Oc3ccc(C)cc3)cc([N+](=O)[O-])c2)c2ccccc2n1 [Compound 1d, Ethyl 4-((3-nitro-5-(p-tolyloxy)phenyl)amino)quinazoline-2-carboxylate] | 0.4
79.0 | 90.8 | enhanced | to a greater extent | CCOC(=O)c1nc(Nc2cc(Oc3ccccc3Br)cc([N+](=O)[O-])c2)c2ccccc2n1 [Compound 1g, Ethyl 4-((3-(2-bromophenoxy)-5-nitrophenyl)amino)quinazoline-2-carboxylate] | 35.6
4.2 | 98.9 | substantial loss of activity |  | CCOC(=O)c1nc(Nc2cc(Oc3ccccc3CC)cc([N+](=O)[O-])c2)c2ccccc2n1 [Compound 1e, Ethyl 4-((3-(2-ethylphenoxy)-5-nitrophenyl)amino)quinazoline-2-carboxylate] | 3.2
65.5 | 93.8 | enhanced |  | CCOC(=O)c1nc(Nc2cc(Oc3ccccc3I)cc([N+](=O)[O-])c2)c2ccccc2n1 [Compound 1h, Ethyl 4-((3-(2-iodophenoxy)-5-nitrophenyl)amino)quinazoline-2-carboxylate] | 34.2
0.0 | 78.4 |  |  | NC(=O)c1nc(Nc2cc(Oc3ccccc3)cc([N+](=O)[O-])c2)c2ccccc2n1 [Compound 9a, 4-((3-nitro-5-phenoxyphenyl)amino)quinazoline-2-carboxamide] | 0.3
1.1 | 105.0 |  |  | Nc1cc(Nc2nc(C(=O)O)nc3ccccc23)cc(Oc2ccccc2)c1 [Compound 6a, 4-((3-Amino-5-phenoxyphenyl)amino)quinazoline-2-carboxylic acid] | 0.3
58.7 | 67.1 |  |  | CCOC(=O)c1nc(Nc2cc(Oc3ccccc3C(F)(F)F)cc([N+](=O)[O-])c2)c2ccccc2n1 [Compound 1i, Ethyl 4-((3-nitro-5-(2-(trifluoromethyl)phenoxy)phenyl)amino)quinazoline-2-carboxylate] | 26.5
